# Assay results reported in patent publication US20070128217A1 (priority 2003, published 2007).
# Columns and labels:
# [1] = system: antibodies in sera from SARS patients (sera 1a, 1b, 2, 6, 37, 62, London, SARS-yellow, SARS-green); format: binding, human; parameters: Binding of serum 6 to linear peptides of protein X1 of SARS-CoV Urbani / Binding of serum 37 to linear peptides of protein X1 of SARS-CoV Urbani / Binding of serum 6 to looped/cyclic peptide (PEPSCAN-ELISA) / Binding of serum 37 to looped/cyclic peptide (PEPSCAN-ELISA) / Binding of serum 37 to looped/cyclic peptides of protein X1 of SARS-CoV Urbani / Binding of serum 6 to linear peptides of protein X2 / Binding of serum 37 to linear peptides of protein X2 / Binding of serum 37 to looped/cyclic peptides of protein X2 of SARS-CoV Urbani / Binding of serum 6 to linear peptides of protein M of SARS-CoV Urbani / Binding of serum 37 to linear peptides of protein M of SARS-CoV Urbani / Binding of serum 6 to looped/cyclic peptides of protein M of SARS-CoV Urbani / Binding of serum 37 to looped/cyclic peptides of protein M of SARS-CoV Urbani / Binding of serum 6 to linear peptides of protein X3 of SARS-CoV Urbani / Binding of serum 37 to linear peptides of protein X3 of SARS-CoV Urbani / Binding of serum 37 to looped/cyclic peptides of protein X3 of SARS-CoV Urbani / Binding of serum 6 to linear peptides of protein X4 of SARS-CoV Urbani / Binding of serum 37 to linear peptides of protein X4 of SARS-CoV Urbani / Binding of serum 37 to looped/cyclic peptides of protein X4 of SARS-CoV Urbani / Binding of serum 6 to linear peptides of protein X5 of SARS-CoV Urbani / Binding of serum 37 to linear peptides of protein X5 of SARS-CoV Urbani / Binding of serum 37 to looped/cyclic peptides of protein X5 of SARS-CoV Urbani / Binding of serum 6 to linear peptides of protein N of SARS-CoV Urbani / Binding of serum 37 to linear peptides of protein N of SARS-CoV Urbani / Binding of serum 6 to linear peptide (PEPSCAN-ELISA) / Binding of serum 1a to looped/cyclic peptides of protein N of SARS-CoV Urbani / Binding of serum 1b to looped/cyclic peptides of protein N of SARS-CoV Urbani / Binding of serum 2 to looped/cyclic peptides of protein N of SARS-CoV Urbani / Binding of serum 6 to looped/cyclic peptides of protein N of SARS-CoV Urbani / Binding of serum 37 to looped/cyclic peptides of protein N of SARS-CoV Urbani / Binding of serum 62 to looped/cyclic peptides of protein N of SARS-CoV Urbani / Binding of serum London to looped/cyclic peptides of protein N of SARS-CoV Urbani / Binding of serum SARS-green to looped/cyclic peptides of protein N of SARS-CoV Urbani: unit not given here
# [2] = system: control sera (pooled serum of ten healthy LUMC hospital workers; commercial negative donor pooled serum from the Dutch bloodbank); format: binding, human; parameters: Binding of Control serum LUMC to linear peptides / Binding of Control serum Blood-bank to linear peptides / Binding of Control serum LUMC to looped peptides / Binding of Control Serum Blood-Bank to Looped peptides / Binding of Control serum LUMC to linear peptides of the protein M of SARS-CoV Urbani / Binding of Control serum Blood-bank to linear peptides of the protein M of SARS-CoV Urbani / Binding of Control serum LUMC to looped peptides of the protein M of SARS-CoV Urbani / Binding of Control Serum Blood-Bank to Looped peptides of the protein M of SARS-CoV Urbani: unit not given here
# [3] = system: rabbit serum obtained by immunizing a rabbit with the SARS-CoV strain Frankfurt 1; format: binding; parameters: Binding of a rabbit serum to linear peptides / Binding of a rabbit serum to looped peptides / Rabbit serum linear peptides / Rabbit serum looped peptides / Binding of a rabbit serum to linear peptides of protein N of SARS-CoV Urbani (Rabbit serum linear peptides) / Binding of a rabbit serum to looped/cyclic peptides of protein N of SARS-CoV Urbani (Rabbit serum looped peptides): unit not given here
# [4] = system: recombinant human anti-SARS-CoV antibody 03-018; format: binding; parameters: Binding of antibody 03-018 to linear peptides of the N protein of SARS-CoV Urbani / Binding of antibody 03-018 to looped/cyclic peptides of the N protein of SARS-CoV Urbani: unit not given here
Sequence,Binding of serum 1a to looped/cyclic peptides of protein N of SARS-CoV Urbani [1],Binding of serum 1b to looped/cyclic peptides of protein N of SARS-CoV Urbani [1],Binding of serum 2 to looped/cyclic peptides of protein N of SARS-CoV Urbani [1],Binding of serum 6 to looped/cyclic peptides of protein N of SARS-CoV Urbani [1],Binding of serum 37 to looped/cyclic peptides of protein N of SARS-CoV Urbani [1],Binding of serum 62 to looped/cyclic peptides of protein N of SARS-CoV Urbani [1],Binding of serum London to looped/cyclic peptides of protein N of SARS-CoV Urbani [1],Binding of serum SARS-green to looped/cyclic peptides of protein N of SARS-CoV Urbani [1],Binding of serum SARS-yellow to looped/cyclic peptides of protein N of SARS-CoV Urbani [1],Binding of Control Serum Blood-Bank to Looped peptides [2],Binding of Control serum Blood-bank to linear peptides [2],Binding of Control serum LUMC to linear peptides [2],Binding of Control serum LUMC to looped peptides [2],Binding of a rabbit serum to linear peptides of protein N of SARS-CoV Urbani (Rabbit serum linear peptides) [3],Binding of a rabbit serum to looped/cyclic peptides of protein N of SARS-CoV Urbani (Rabbit serum looped peptides) [3],Binding of antibody 03-018 to linear peptides of the N protein of SARS-CoV Urbani [4],Binding of antibody 03-018 to looped/cyclic peptides of the N protein of SARS-CoV Urbani [4],Binding of serum 1a to linear peptides of protein N of SARS-CoV Urbani [1],Binding of serum 1b to linear peptides of protein N of SARS-CoV Urbani [1],Binding of serum 2 to linear peptides of protein N of SARS-CoV Urbani [1],also measured
GDQDLIRQGTDYKHW,0.4,0.2,0.4,0.3,0.6,0.5,0.4,0.4,0.3,0.6,0.9,0.8,0.5,0.1,0.5,0.1,0.2,,,,Binding of serum 1a to linear peptide (PEPSCAN-ELISA) [1]: 0.2; Binding of serum 1b to linear peptide (PEPSCAN-ELISA) [1]: 0.1; Binding of serum 2 to linear peptide (PEPSCAN-ELISA) [1]: 0.2; Binding of serum 6 to linear peptide (PEPSCAN-ELISA) [1]: 0.3; Binding of serum 37 to linear peptide (PEPSCAN-ELISA) [1]: 0.6; Binding of serum 62 to linear peptide (PEPSCAN-ELISA) [1]: 0.7; Binding of serum London to linear peptide (PEPSCAN-ELISA) [1]: 0.9; Binding of serum SARS-green to linear peptide (PEPSCAN-ELISA) [1]: 0.5; Binding of serum SARS-yellow to linear peptide (PEPSCAN-ELISA) [1]: 0.7
DGKMKELSPRWYFYY,0.4,0.3,0.5,0.4,0.8,0.7,0.5,0.4,0.5,0.8,0.8,0.6,0.7,0.1,0.6,0.1,0.2,0.2,0.1,0.2,Binding of serum 6 to linear peptides of protein N of SARS-CoV Urbani [1]: 0.1; Binding of serum 37 to linear peptides of protein N of SARS-CoV Urbani [1]: 0.5; Binding of serum 62 to linear peptides of protein N of SARS-CoV Urbani [1]: 0.5; Binding of serum London to linear peptides of protein N of SARS-CoV Urbani [1]: 0.4; Binding of serum SARS-green to linear peptides of protein N of SARS-CoV Urbani [1]: 0.4; Binding of serum SARS-yellow to linear peptides of protein N of SARS-CoV Urbani [1]: 0.5
FPPTEPKKDKKKKTD,0.2,0.1,0.2,0.1,0.4,0.2,0.2,0.0,0.1,,,,,0.1,0.1,0.1,0.2,0.2,0.1,1.3,Binding of serum 6 to linear peptides of protein N of SARS-CoV Urbani [1]: 0.2; Binding of serum 37 to linear peptides of protein N of SARS-CoV Urbani [1]: 0.6; Binding of serum 62 to linear peptides of protein N of SARS-CoV Urbani [1]: 0.7; Binding of serum London to linear peptides of protein N of SARS-CoV Urbani [1]: 0.6; Binding of serum SARS-green to linear peptides of protein N of SARS-CoV Urbani [1]: 0.1; Binding of serum SARS-yellow to linear peptides of protein N of SARS-CoV Urbani [1]: 0.6; Control Serum Blood-Bank Looped peptides [2]: 0.4; Control serum Blood-bank linear peptides [2]: 0.6; Control serum LUMC linear peptides [2]: 0.6; Control serum LUMC looped peptides [2]: 0.3
RATRRVRGGDGKMKE,0.2,0.1,0.2,0.1,0.5,0.2,0.2,0.0,0.3,0.4,0.8,0.7,0.3,0.2,0.2,0.1,0.2,0.2,0.1,0.4,Binding of serum 6 to linear peptides of protein N of SARS-CoV Urbani [1]: 0.2; Binding of serum 37 to linear peptides of protein N of SARS-CoV Urbani [1]: 0.8; Binding of serum 62 to linear peptides of protein N of SARS-CoV Urbani [1]: 0.7; Binding of serum London to linear peptides of protein N of SARS-CoV Urbani [1]: 0.5; Binding of serum SARS-green to linear peptides of protein N of SARS-CoV Urbani [1]: 0.3; Binding of serum SARS-yellow to linear peptides of protein N of SARS-CoV Urbani [1]: 0.6
